Assay results taken from ChEMBL document CHEMBL1201861, “Genomics of Drug Sensitity in Cancer screening data, Wellcome Trust Sanger Institute”.

What was measured:
Experiment in all cases: cells
COLO-829 = type: functional, cell-based, Homo sapiens; settings: Homo sapiens, COLO-829
Description: SANGER: Inhibition of human COLO-829 cell growth in a cell viability assay.

Calu-6 = type: functional, cell-based, Homo sapiens; settings: Homo sapiens, Calu-6;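 further: growth of human Calu-6 cells, read out by a cell viability assay, IC50 marking inhibition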
Description: SANGER: Inhibition of human Calu-6 cell growth in a cell viability assay.

D-263MG = type: functional, cell-based, Homo sapiens; settings: Homo sapiens, D-263MG
Description: SANGER: Inhibition of human D-263MG cell growth in a cell viability assay.

DEL = type: functional, cell-based, Homo sapiens; settings: Homo sapiens, DEL;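 further: growth inhibition of the human DEL cell line, read out with a cell viability assay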
Description: SANGER: Inhibition of human DEL cell growth in a cell viability assay.

DJM-1 = type: functional, cell-based, Homo sapiens; settings: Homo sapiens, DJM-1;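 further: growth inhibition of human DJM-1 cells, read out by a cell viability assay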
Description: SANGER: Inhibition of human DJM-1 cell growth in a cell viability assay.

DMS-114 = type: functional, cell-based, Homo sapiens; settings: Homo sapiens, DMS-114
ES6 = type: functional, cell-based; settings: Homo sapiens;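 further: growth inhibition of human ES6 cells, read out with a cell viability assay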
Description: SANGER: Inhibition of human ES6 cell growth in a cell viability assay.

ES8 = type: functional, cell-based, Homo sapiens; settings: Homo sapiens, ES8;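 further: growth inhibition of human ES8 cells, read out with a cell viability assay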
Description: SANGER: Inhibition of human ES8 cell growth in a cell viability assay.

ETK-1 = type: functional, cell-based, Homo sapiens; settings: Homo sapiens, ETK-1;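 further: growth inhibition of human ETK-1 cells, read out with a cell viability assay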
Description: SANGER: Inhibition of human ETK-1 cell growth in a cell viability assay.

EW-1 = type: functional, cell-based, Homo sapiens; settings: Homo sapiens, EW-1
Description: SANGER: Inhibition of human EW-1 cell growth in a cell viability assay.

EW-18 = type: functional, cell-based, Homo sapiens; settings: Homo sapiens, EW-18; read-out: IC50;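 further: growth inhibition of EW-18 cells, read out by a cell viability assay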
Description: SANGER: Inhibition of human EW-18 cell growth in a cell viability assay.

GCIY = type: functional, cell-based, Homo sapiens; settings: Homo sapiens, GCIY;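 further: growth inhibition of the human GCIY cell line, read out by a cell viability assay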
Description: SANGER: Inhibition of human GCIY cell growth in a cell viability assay.

HAL-01 = type: functional, cell-based, Homo sapiens; settings: Homo sapiens, HAL-01;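 further: growth inhibition of human HAL-01 cells, read out with a cell viability assay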
Description: SANGER: Inhibition of human HAL-01 cell growth in a cell viability assay.

IST-MES1 = type: functional, cell-based, Homo sapiens; settings: Homo sapiens, IST-MES1;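 further: growth inhibition of IST-MES1 cells, measured with a cell viability assay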
Description: SANGER: Inhibition of human IST-MES1 cell growth in a cell viability assay.

IST-SL1 = type: functional, cell-based, Homo sapiens; settings: Homo sapiens, IST-SL1;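 further: growth inhibition of human IST-SL1 cells, read out with a cell viability assay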
Description: SANGER: Inhibition of human IST-SL1 cell growth in a cell viability assay.

KALS-1 = type: functional, cell-based, Homo sapiens; settings: Homo sapiens, KALS-1; read-out: IC50;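 further: growth inhibition of KALS-1 cells, determined with a cell viability assay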
Description: SANGER: Inhibition of human KALS-1 cell growth in a cell viability assay.

KM12 = type: functional, cell-based, Homo sapiens; settings: Homo sapiens, KM12;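 further: KM12 cell growth inhibition, read out with a cell viability assay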
Description: SANGER: Inhibition of human KM12 cell growth in a cell viability assay.

KNS-81-FD = type: functional, cell-based, Homo sapiens; settings: Homo sapiens, KNS-81-FD;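 further: growth inhibition of KNS-81-FD cells, read out with a cell viability assay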
Description: SANGER: Inhibition of human KNS-81-FD cell growth in a cell viability assay.

KS-1 = type: functional, cell-based; settings: Homo sapiens;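 further: growth inhibition of KS-1 cells, read out with a cell viability assay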
Description: SANGER: Inhibition of human KS-1 cell growth in a cell viability assay.

L-363 = type: functional, cell-based, Homo sapiens; settings: Homo sapiens, L-363
Description: SANGER: Inhibition of human L-363 cell growth in a cell viability assay.

L-428 = type: functional, cell-based, Homo sapiens; settings: Homo sapiens, L-428
Description: SANGER: Inhibition of human L-428 cell growth in a cell viability assay.

LB831-BLC = type: functional, cell-based, Homo sapiens; settings: Homo sapiens, LB831-BLC;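 further: growth inhibition of LB831-BLC cells, read out with a cell viability assay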
Description: SANGER: Inhibition of human LB831-BLC cell growth in a cell viability assay.

LOX IMVI = type: functional, cell-based, Homo sapiens; settings: Homo sapiens, LOX IMVI
Description: SANGER: Inhibition of human LOXIMVI cell growth in a cell viability assay.

LS-513 = type: functional, cell-based, Homo sapiens; settings: Homo sapiens, LS-513
Description: SANGER: Inhibition of human LS-513 cell growth in a cell viability assay.

MEG-01 = type: functional, cell-based, Homo sapiens; settings: Homo sapiens, MEG-01;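 further: growth inhibition of MEG-01 cells, read out by a cell viability assay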
Description: SANGER: Inhibition of human MEG-01 cell growth in a cell viability assay.

MHH-PREB-1 = type: functional, cell-based, Homo sapiens; settings: Homo sapiens, MHH-PREB-1;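 further: cell viability assay measuring inhibition of proliferation of human MHH-PREB-1 cells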
Description: SANGER: Inhibition of human MHH-PREB-1 cell growth in a cell viability assay.

MZ2-MEL = type: functional, cell-based, Homo sapiens; settings: Homo sapiens, MZ2-MEL;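 further: growth inhibition of MZ2-MEL cells read out with a cell viability assay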
Description: SANGER: Inhibition of human MZ2-MEL cell growth in a cell viability assay.

MZ7-mel = type: functional, cell-based, Homo sapiens; settings: Homo sapiens, MZ7-mel;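 further: growth inhibition of human MZ7-mel cells, measured by a cell viability assay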
Description: SANGER: Inhibition of human MZ7-mel cell growth in a cell viability assay.

Mo = type: functional, cell-based, Homo sapiens; settings: Homo sapiens, Mo
Description: SANGER: Inhibition of human Mo-T cell growth in a cell viability assay.

NCI-H82 = type: functional, cell-based, Homo sapiens; settings: Homo sapiens, NCI-H82;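 further: growth inhibition of NCI-H82 cells, measured with a cell viability readout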
Description: SANGER: Inhibition of human NCI-H82 cell growth in a cell viability assay.

ONS-76 = type: functional, cell-based, Homo sapiens; settings: Homo sapiens, ONS-76;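 further: growth inhibition of human ONS-76 cells, read out with a cell viability assay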
Description: SANGER: Inhibition of human ONS-76 cell growth in a cell viability assay.

QIMR-WIL = type: functional, cell-based, Homo sapiens; settings: Homo sapiens, QIMR-WIL;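 further: growth inhibition of QIMR-WIL cells, read out with a cell viability assay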
Description: SANGER: Inhibition of human QIMR-WIL cell growth in a cell viability assay.

RS4-11 = type: functional, cell-based, Homo sapiens; settings: Homo sapiens, RS4-11;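 further: growth inhibition of RS4-11 cells, read out by a cell viability assay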
Description: SANGER: Inhibition of human RS4-11 cell growth in a cell viability assay.

Ramos-2G6-4C10 = type: functional, cell-based, Homo sapiens; settings: Homo sapiens, Ramos-2G6-4C10;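 further: growth inhibition of the cell line, measured by a cell viability read-out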
Description: SANGER: Inhibition of human Ramos-2G6-4C10 cell growth in a cell viability assay.

SCC-15 = type: functional, cell-based, Homo sapiens; settings: Homo sapiens, SCC-15;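 further: growth inhibition of SCC-15 cells, read out with a cell viability assay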
Description: SANGER: Inhibition of human SCC-15 cell growth in a cell viability assay.

SH-4 = type: functional, cell-based; settings: Homo sapiens;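 further: growth inhibition of SH-4 cells, read out with a cell viability assay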
Description: SANGER: Inhibition of human SH-4 cell growth in a cell viability assay.

SK-NEP-1 = type: functional, cell-based, Homo sapiens; settings: Homo sapiens, SK-NEP-1;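 further: growth inhibition of human SK-NEP-1 cells, read out by a cell viability assay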
Description: SANGER: Inhibition of human SK-NEP-1 cell growth in a cell viability assay.

SW684 = type: functional, cell-based, Homo sapiens; settings: Homo sapiens, SW684; read-out: IC50;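 further: growth inhibition of human SW684 cells, measured by a cell viability assay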
Description: SANGER: Inhibition of human SW684 cell growth in a cell viability assay.

A101D = type: functional, cell-based, Homo sapiens; settings: Homo sapiens, A101D;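 further: growth inhibition of the cell line, measured with a viability assay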
Description: SANGER: Inhibition of human A101D cell growth in a cell viability assay.

BB65-RCC = type: functional, cell-based, Homo sapiens; settings: Homo sapiens, BB65-RCC;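 further: growth inhibition of the cell line, measured with a cell viability assay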
Description: SANGER: Inhibition of human BB65-RCC cell growth in a cell viability assay.

C2BBe1 = type: functional, cell-based, Homo sapiens; settings: Homo sapiens, C2BBe1;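 further: growth inhibition of C2BBe1 cells, read out through a viability assay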
Description: SANGER: Inhibition of human C2BBe1 cell growth in a cell viability assay.

C8166 = type: functional, cell-based, Homo sapiens; settings: Homo sapiens, C8166;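 further: growth inhibition of human C8166 cells measured by a cell viability assay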
Description: SANGER: Inhibition of human C8166 cell growth in a cell viability assay.

TE-5 = type: functional, cell-based, Homo sapiens; settings: Homo sapiens, TE-5;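 further: inhibition of cell growth, read out by a cell viability assay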
Description: SANGER: Inhibition of human TE-5 cell growth in a cell viability assay.

TE-6 = type: functional, cell-based, Homo sapiens; settings: Homo sapiens, TE-6;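 further: growth inhibition of TE-6 cells, read out with a cell viability assay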
Description: SANGER: Inhibition of human TE-6 cell growth in a cell viability assay.

TGBC1TKB = type: functional, cell-based, Homo sapiens; settings: Homo sapiens, TGBC1TKB;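 further: growth inhibition of TGBC1TKB cells, read out by a cell viability assay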
Description: SANGER: Inhibition of human TGBC1TKB cell growth in a cell viability assay.

TK-10 = type: functional, cell-based, Homo sapiens; settings: Homo sapiens, TK-10;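 further: growth inhibition of TK-10 cells, read out in a cell viability assay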
Description: SANGER: Inhibition of human TK10 cell growth in a cell viability assay.

no-10 = type: functional, cell-based, Homo sapiens; settings: Homo sapiens;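 further: growth inhibition of no-10 cells, read out with a cell viability assay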
Description: SANGER: Inhibition of human no-10 cell growth in a cell viability assay.

COLO-684 = type: functional, cell-based, Homo sapiens; settings: Homo sapiens, COLO-684
Description: SANGER: Inhibition of human COLO-684 cell growth in a cell viability assay.

OVCAR-4 = type: functional, cell-based, Homo sapiens; settings: Homo sapiens, OVCAR-4;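 further: growth inhibition of human OVCAR-4 cells, measured with a cell viability assay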
Description: SANGER: Inhibition of human OVCAR-4 cell growth in a cell viability assay.

With `O=C1NC(=O)c2c1c(-c1ccccc1Cl)cc1[nH]c3ccc(O)cc3c21` the IC50 (COLO-829) was > 2000 nM, the IC50 (Calu-6) was > 2000 nM and the IC50 (D-263MG) was > 2000 nM. For the same compound, the IC50 (DEL) was 485 nM, the IC50 (DJM-1) was > 2000 nM and the IC50 (DMS-114) was > 2000 nM. For the same compound, the IC50 (ES6) was > 2000 nM, the IC50 (ES8) was > 2000 nM and the IC50 (ETK-1) was > 2000 nM. For the same compound, the IC50 (EW-1) was 338 nM, the IC50 (EW-18) was > 2000 nM and the IC50 (GCIY) was > 2000 nM. For the same compound, the IC50 (HAL-01) was 1160 nM, the IC50 (IST-MES1) was > 2000 nM and the IC50 (IST-SL1) was 1460 nM. For the same compound, the IC50 (KALS-1) was 834 nM, the IC50 (KM12) was > 2000 nM and the IC50 (KNS-81-FD) was > 2000 nM. For the same compound, the IC50 (KS-1) was > 2000 nM, the IC50 (L-363) was 1530 nM and the IC50 (L-428) was > 2000 nM. For the same compound, the IC50 (LB831-BLC) was > 2000 nM, the IC50 (LOX IMVI) was > 2000 nM and the IC50 (LS-513) was > 2000 nM. The IC50 (MEG-01) was > 2000 nM, the IC50 (MHH-PREB-1) was 523 nM and the IC50 (MZ2-MEL) was > 2000 nM. The IC50 (MZ7-mel) was > 2000 nM, the IC50 (Mo) was > 2000 nM and the IC50 (NCI-H82) was > 2000 nM. The IC50 (ONS-76) was > 2000 nM, the IC50 (QIMR-WIL) was 135 nM and the IC50 (RS4-11) was 898 nM. The IC50 (Ramos-2G6-4C10) was 610 nM, the IC50 (SCC-15) was > 2000 nM and the IC50 (SH-4) was 1650 nM. For the same compound, the IC50 (SK-NEP-1) was > 2000 nM, the IC50 (SW684) was > 2000 nM and the IC50 (A101D) was > 2000 nM. For the same compound, the IC50 (BB65-RCC) was 1420 nM, the IC50 (C2BBe1) was > 2000 nM and the IC50 (C8166) was > 2000 nM. The IC50 (TE-5) was > 2000 nM, the IC50 (TE-6) was > 2000 nM and the IC50 (TGBC1TKB) was > 2000 nM. For the same compound, the IC50 (TK-10) was > 2000 nM, the IC50 (no-10) was > 2000 nM and the IC50 (COLO-684) was > 2000 nM.
Compound `CC(C)C[C@H](NC(=O)[C@H](Cc1ccccc1)NC(=O)c1cnccn1)B(O)O` [BORTEZOMIB] has an IC50 (COLO-829) of 0.614 nM, an IC50 (Calu-6) of 1.29 nM and an IC50 (D-263MG) of 0.807 nM. For the same compound, the IC50 (DEL) was > 20 nM, the IC50 (DJM-1) was 3.63 nM and the IC50 (DMS-114) was 9.62 nM. The IC50 (ES6) was < 0.0781 nM, the IC50 (ES8) was 0.4 nM and the IC50 (ETK-1) was 2.84 nM. It also gave an IC50 (EW-1) of 5.31 nM, an IC50 (EW-18) of 18 nM and an IC50 (GCIY) of 1.62 nM. The IC50 (HAL-01) was 1.18 nM, the IC50 (IST-MES1) was > 20 nM and the IC50 (IST-SL1) was 4.68 nM. For the same compound, the IC50 (KALS-1) was 0.925 nM, the IC50 (KM12) was 1.27 nM and the IC50 (KNS-81-FD) was 2.48 nM. For the same compound, the IC50 (KS-1) was 0.34 nM, the IC50 (L-363) was 7.7 nM and the IC50 (L-428) was > 20 nM. The IC50 (LB831-BLC) was 0.641 nM, the IC50 (LOX IMVI) was 3.5 nM and the IC50 (LS-513) was 0.739 nM. It also gave an IC50 (MEG-01) of 3.49 nM, an IC50 (MHH-PREB-1) of 4.86 nM and an IC50 (MZ2-MEL) of 0.407 nM. For the same compound, the IC50 (MZ7-mel) was 1.09 nM, the IC50 (Mo) was 2.74 nM and the IC50 (NCI-H82) was > 20 nM. For the same compound, the IC50 (ONS-76) was 0.33 nM, the IC50 (OVCAR-4) was 0.289 nM and the IC50 (QIMR-WIL) was 0.889 nM. For the same compound, the IC50 (RS4-11) was > 20 nM, the IC50 (Ramos-2G6-4C10) was 0.693 nM and the IC50 (SCC-15) was > 20 nM. It also gave an IC50 (SH-4) of 0.173 nM, an IC50 (SK-NEP-1) of 9.01 nM and an IC50 (SW684) of 0.821 nM. It also gave an IC50 (A101D) of 0.225 nM, an IC50 (BB65-RCC) of 0.304 nM and an IC50 (C2BBe1) of 2.89 nM. For the same compound, the IC50 (C8166) was > 20 nM, the IC50 (TE-5) was 0.865 nM and the IC50 (TE-6) was > 20 nM. It also gave an IC50 (TGBC1TKB) of 1.71 nM, an IC50 (TK-10) of 0.679 nM and an IC50 (no-10) of 0.21 nM. For the same compound, the IC50 (COLO-684) was 3.66 nM.
